Several values for one entry are separate records, joined by “and”; a condition that tells them apart may be missing. Identical values can stand only once. Counter-ions that a name gives are not always drawn. Like-named read-outs stand apart in the source and are kept apart here.

The record followed here is patent publication US20210253598A1, “ARYL ANNULATED MACROCYCLIC INDOLE DERIVATIVES” (priority 2017, published 2021).

The subject of one assay is A2780. Briefly: Anti-proliferative effect in A2780 cells, CellTiter-Glo (Assay 7). The format is cell-based. The following applies: A2780, 72 hours incubation, CellTiter-Glo; several values per example; read-out: Antiproli A2780. The method in brief: (§1)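 Overnight seeding at 37 °C, then 72 h treatment with compound; day 0 plate read at start. Luminescent ATP-based viability readout (CellTiter-Glo). IC50 normalised between day 0 and DMSO values.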
For orientation: ATP-based viability assays read luminescence as a measure of living cells.

In another assay the target is BCL-XL (Homo sapiens, UniProt Q07817). As to the kind of experiment: Protein-protein interaction assay BCL-XL/Bad BH3 peptide, TR-FRET (BCL-XL assay, Assay 2). The format is binding. The following applies: His-BCL-XL / Bad BH3 peptide, median. (Time-resolved FRET reads energy transfer from a long-lived donor to a nearby acceptor.)
Another assay has as its system MV-4-11. As to the kind of experiment: Anti-proliferative effect in MV-4-11 cells, CellTiter-Glo (Assay 7). Conditions: MV-4-11, 72 hours incubation, CellTiter-Glo, several values per example, read-out: Antiproli MV-4-11. Format: cell-based. The method in brief:
as §1

The target of the next assay is T1, MCL1 protein (Homo sapiens, UniProt Q07820).
T1 construct: this assay uses full length endogenous MCL1 protein at mitochondria outer membrane; endogenous in cells; host or cells: RKO colon cancer cell line
As to the kind of experiment: PIxEL: protein-protein interaction in permeabilized cells by ELISA (Assay 5). The format is cell-based. Conditions: PIxEL [M] (median), permeabilized RKO cells, biotin-BIM BH3 peptide 0.2 μM, serum free. How it is done: PIxEL: Protein-Protein Interaction in Permeabilized Cells by ELISA
Most MCL1 protein molecules are localized at the mitochondria outer membrane and sequester pro-apoptotic proteins through binding of their BCL2 homology domain 3 (BH3 domain). MEB buffer (150 mM mannitol, 10 mM HEPES pH 7.5, 50 mM KCl, 20 μM EDTA, 20 μM EGTA, 5 mM potassium succinate, 0.1% protease-free BSA (SIGMA) with low dose digitonin (0.002%) permeabilizes plasma membrane while leaves live mitochondria, where MCL1 maintains its native localization and conformation. Unlike biophysical assays (e.g. TR-FRET) that use truncated recombinant MCL1 protein, this assay uses full length endogenous MCL1 protein at mitochondria outer membrane. It measures the interaction between MCL1 protein and biotinylated BIM BH3 peptide. Compounds can compete with BIM BH3 peptide to bind to MCL1 protein.
On day 1, RKO colon cancer cell line cells were plated at 0.8 million cells/ml, 100 μl/well in 96-well flat bottom TC plates (Corning). […] Each plate was tapped to make sure liquid covering entire bottom of wells and incubate at 37° C. overnight.
On the second day, MCL1 antibody was washed from ELISA plate. 250 μl Odyssey® Blocking Buffer (PBS) (Li-Cor) was added to each well, incubated at room temperature for at least 1 hour, then washed once with 250 μl 1×PBST. Plates with RKO cells were gently washed once with 100 μl/well PBS, once with 100 μl/well MEB buffer without digitonin, then 100 μl of MEB buffer with 0.002% digitonin was gently added to each well. Compounds were added with HP Tecan compound dispenser in 3-fold dilution series, highest dose 30 μM, 10-dose per compound in quadruplicates. Biotin-BIM peptide (synthesized by 21st Century) was added with HP Tecan compound dispenser at 0.2 μM immediately after the addition of compounds. Plates were rocked for 1 h at room temperature. Then MEB buffer was aspirated and 50 μl of CHAPS buffer (50 mM Tris-Cl, pH 7.4, 150 mM NaCl, 1% CHAPS, 1 mM EDTA, 1 mM EGTA, complete protease inhibitors (Roche), PhosSTOP (Roche)) was added to each well. Plates were rocked for 1 hour at 4° C., then 45 μl cell lysate from each well were transferred to ELISA plates coated with MCL1 antibody. Plates were incubated overnight in the cold room with rocking.
On the third day, ELISA plates were washed once with 250 μl 1×PBST. Streptavidin-poly-HRP (Thermo Fisher Scientific) was diluted to 20 ng/ml in Odyssey blocking buffer plus 0.05% Triton-100, and 100 μl was added to each well of the ELISA plate. Plates were incubated at RT for 1 hour with rocking, then washed with 100 μL 1×PBST for 3 times. Each SuperSignal ELISA Femto Maximum Sensitivity substrate was added to a 50-ml tube and mixed, then 100 μl of mixed substrate was added to each well. Plates were shaken for 1 minute then luminescence was measured by Envision plate reader […]. Signal of each well were normalized by no-compound control and no-cell control. IC50 was calculated using Graphic Pad PRISM software.
On the technique in general: An ELISA detects its analyte on a solid surface through an enzyme-linked reagent.

Sequence of BCL-XL (Q07817 1-212): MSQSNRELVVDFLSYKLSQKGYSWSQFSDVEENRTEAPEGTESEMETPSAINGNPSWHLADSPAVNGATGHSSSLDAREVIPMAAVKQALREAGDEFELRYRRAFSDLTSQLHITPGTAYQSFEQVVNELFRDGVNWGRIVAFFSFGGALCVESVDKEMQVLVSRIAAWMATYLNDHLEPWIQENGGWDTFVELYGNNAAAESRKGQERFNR
T1 sequence (Q07820 whole entry): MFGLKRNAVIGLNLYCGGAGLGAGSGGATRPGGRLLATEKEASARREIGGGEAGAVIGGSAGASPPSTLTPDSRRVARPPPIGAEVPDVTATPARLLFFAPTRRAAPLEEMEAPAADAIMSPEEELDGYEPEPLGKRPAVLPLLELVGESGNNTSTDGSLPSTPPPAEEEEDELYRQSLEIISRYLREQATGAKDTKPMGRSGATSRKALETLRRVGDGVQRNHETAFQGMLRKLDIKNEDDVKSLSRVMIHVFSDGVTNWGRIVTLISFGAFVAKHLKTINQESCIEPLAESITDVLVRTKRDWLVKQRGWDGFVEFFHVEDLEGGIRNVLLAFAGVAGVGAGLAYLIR
Protocol for BCL-XL: Protein-Protein Interaction Assay: BCL-XL/Bad BH3 Peptide (BCL-XL Assay)
The dose-dependent inhibition by the compounds described in this invention of the interaction between BCL-XL and the BH3 domain of Bad (both human) was determined using a steady state binding competition assay with time-resolved fluorescence energy transfer (TR-FRET) readout. For that purpose BCL-XL (amino acids 1-212, C-terminal fused to a hexahistidine (6×His) tag (SEQ ID 3) and a synthetic Bad BH3-derived peptide of sequence Biotin-PEG2-PEG2-[sequence]-Nle-[sequence]-amide (SEQ ID 4) served as protein receptor and tracer ligand respectively. The recombinant BCL-XL protein (expressed in E. coli) was purchased from BPS Bioscience (San Diego, Calif., USA). The Bad BH3-derived peptide can be obtained from e.g. Biosyntan (Berlin, Germany).
For that, 100-fold concentrated DMSO solutions were prepared by serial dilutions (1:3.4) of a 2 mM stock solution in a clear, 384-well microtiter plate (Greiner Bio-One, Frickenhausen, Germany). From there, 50 nl were transferred in a dark test plate (Greiner Bio-One, Frickenhausen, Germany). The assay was initiated by addition of 2 μl of a 2,5-fold concentrated His-BCL-XL solution (usually for a 1 nM end concentration in 5 μl reaction volume) in aqueous assay buffer [50 mM Tris/HCl pH 7, 100 mM sodium chloride (NaCl), 50 mM potassium fluoride (KF), 0.005% Tween-20, 2 mM DTT, 0.1% bovine gamma globulin (BGG)] to the compounds in the assay plate. This was followed by a 10-minute incubation step at 22° C. for pre-equilibration of the putative complex between His-BCL-XL and the compounds.
The mixture was incubated in the dark for one hour at 22° C. and then overnight at 4° C. The formation of BCL-XL/Bad complexes was determined by measuring the resonance energy transfer of the anti-His- Eu-cryptate antibody to the streptavidin-XL665 present in the reaction. For that purpose, the fluorescence emission at 620 nm and 665 nm after excitation at 330-350 nm was measured in a TR-FRET measuring instrument, for instance a Rubystar or a Pherastar (both from BMG Lab Technologies, Offenburg, Germany) or a Viewlux (Perkin-Elmer). The ratio of the emission at 665 nm and at 622 nm was used as indicator of the amount of BCL-XL/Bad complexes present.
The resulting data (ratio) were normalized, taking 0% inhibition as the mean value of control measurements (usually 32 data points) where all reagents were included. In this case 50 nl DMSO were used instead of compounds. […] IC50 values were determined by regression analysis based on a 4 parameter equation (minimum, maximum, IC50, Hill; Y=Max+(Min−Max)/(1+(X/IC50)^Hill) using the Screener Software (Genedata).

Consider `Cc1c2c(nn1C)COCc1ccccc1Cn1c(C(=O)O)c(CCCOc3cccc4cc(F)ccc34)c3ccc(Cl)c-2c31` (single isomer, unassigned; enantiomer 1) [Example 49, (−)-3-Chloro-17-{3-[(6-fluoronaphthalen-1-yl)oxy]propyl}-4,5-dimethyl-5,7,9,14-tetrahydroindolo[7,1-fg]pyrazolo[3,4-d][2,8]benzoxazacycloundecine-16-carboxylic acid-N-ethylethanamine Salt (Enantiomer 1)], for which the IC50 is 7.62 µM and 5.26 µM in the assay with A2780; greater than 20 µM against BCL-XL; 3.09 µM in the assay on MV-4-11 (Homo sapiens, MV4-11, 72 h); 3.41 µM and 3.78 µM in the assay on MV-4-11; 7.88e-07 M against MCL1 protein.
